Experimental data as given in patent US20250129486A1, “A METHOD FOR MANUFACTURING PHARMACEUTICAL GRADE HYPOCHLOROUS ACID” (priority 2022, published 2025).

Legend:
[1] = Storage stability of HOCl solution by container; format: physicochemical; conditions: any form of plastic container
From the text: The present invention relates to a method of manufacture of pharmaceutical grade hypochlorous acid (HOCl) solution. The solution is free of toxic by-products and is manufactured by means of a process that is novel. Furthermore, the manufacturing process results in high concentration HOCl solution at a pre-determined pH level. The solution is stable when kept in UV-protected glass for two years. Due to the method and process of manufacture, the solution is of a pharmaceutical grade.
HOCl+UV light→OH+Cl^−+O3 [Reaction Formula 11] • It is therefore essential to store solutions containing HOCl in UV-protected inert containers. • ii) The container in which the solutions are kept should be made of glass. […] Glass containers avoid oxidation reactions between the container and HOCl. • iii) Stable HOCl production requires platinum grade reactants, including pure water without any organic and inorganic compounds or ions, as the oxidation of these compounds will deplete the HOCl concentration in the solution. • iv) Correcting the solution pH to between 4.0-5.80 immediately after manufacturing, through real-time buffering. Variation outside pH 4.0 to 5.80 will not only result in the dissociation of HOCl into Cl2 or OCl^− but will provide the environment for the decomposition of HOCl to form chlorate. It is therefore of utmost importance that this pH level

[2] = cited from earlier work

OCl [HOCl, hypochlorous acid]
Decomposition of HOCl in container [1]: marked decomposition | pKa [2]: 7.53
